Measurements taken from patent US10376499B2, “Combination therapy for treatment of resistant bacterial infections” (priority 2014, dated 2019).
In brackets after ≈: the same amount, converted by molar mass.

What was measured:
[1] = tested on: Pseudomonas aeruginosa; assay: MIC summary, 600 strains of Pseudomonas aeruginosa (Example 8); conditions: n = 600 strains; cmpd 1 and SUL each at 4 μg/mL where present
[2] = tested on: Acinetobacter baumannii; assay: MIC summary, 600 strains of Acinetobacter baumannii (Example 8); conditions: n = 600 strains; cmpd 1 and SUL each at 4 μg/mL where present
[3] = tested on: A. baumannii; assay: MIC by broth microdilution (CLSI), panel of 60 A. baumannii clinical isolates (Example 1); conditions: Acinetobacter baumannii
[4] = tested on: A. baumannii; assay: MIC90 of common antibiotics+compound 1, 196 contemporary clinical isolates of A. baumannii (Example 4); conditions: B-lactam + Cmpd 1 (4 μg/mL)
[5] = tested on: A. baumannii; assay: MIC of sulbactam+compound 1 versus Unasyn®+compound 1 (Example 2); conditions: equivalent total amount of sulbactam in both combinations; FIG. 2
[6] = tested on: B. pseudomallei K96243; assay type: in vivo, Burkholderia pseudomallei; conditions: Balb/c mice, lethal intranasal challenge; therapy from 4 hours post challenge for six consecutive days; FIG. 5

`C[C@@H](O)[C@H]1C(=O)N2C(C(=O)O)=C(S[C@@H]3CN[C@H](C(=O)N(C)C)C3)[C@H](C)[C@H]12` [Meropenem, meropenem] was tested, and the MIC50 [1] was 0.5, the MIC90 [1] was greater than 8 and the MIC50 [2] was greater than 8. The MIC90 [2] was greater than 8, the “MIC Max” value [2] was greater than 8 and the “MIC Min” value [2] was 0.0599. For the same compound, the MIC50 [3] was 16 µg/mL (≈ 41.7 µM), the MIC90 [3] was 32 µg/mL (≈ 83.4 µM) and the MIC ([3]; strain ARC593, OXA-98) was 1 µg/mL (≈ 2.61 µM). The MIC ([3]; strain ARC2058, OXA-95) was 0.25 µg/mL (≈ 0.652 µM), the MIC ([3]; strain ARC2461, OXA-66, TEM-1) was 2 µg/mL (≈ 5.22 µM) and the MIC ([3]; strain ARC2462, TEM-1, OXA-66) was 4 µg/mL (≈ 10.4 µM). It also gave an MIC ([3]; strain ARC2598, OXA*, TEM-1, OXA-113) of 8 µg/mL (≈ 20.9 µM), an MIC ([3]; strain ARC2635, OXA-65, OXA-40, TEM-1) greater than 32 µg/mL and an MIC ([3]; strain ARC2636, OXA-65, OXA-40, TEM-1) greater than 32 µg/mL. The MIC ([3]; strain ARC2674, SHV-5, OXA-113) was 8 µg/mL (≈ 20.9 µM), the MIC ([3]; strain ARC2675, SHV-5, OXA-113) was greater than 32 µg/mL and the MIC ([3]; strain ARC2681, OXA-40, TEM-1, OXA-132) was 32 µg/mL (≈ 83.4 µM). For the same compound, the MIC ([3]; strain ARC2682, SHV-5, OXA-113) was 32 µg/mL (≈ 83.4 µM), the MIC ([3]; strain ARC2777, OXA-172, TEM-1) was 32 µg/mL (≈ 83.4 µM) and the MIC ([3]; strain ARC2778, OXA-40, TEM-1, OXA-65) was greater than 32 µg/mL. For the same compound, the MIC ([3]; strain ARC2779 (A. baumannii/calcoaceticus complex), OXA-2, VIM-2) was 16 µg/mL (≈ 41.7 µM), the MIC ([3]; strain ARC2780 (A. baumannii/calcoaceticus complex), OXA*, OXA-2, IMP-1) was 32 µg/mL (≈ 83.4 µM) and the MIC ([3]; strain ARC2782, OXA-66, OXA-23, TEM-1, PER-1) was 16 µg/mL (≈ 41.7 µM). The MIC ([3]; strain ARC2788, OXA-65, TEM-1) was 1 µg/mL (≈ 2.61 µM), the MIC ([3]; strain ARC3484, TEM-1, OXA-23, OXA-64) was 32 µg/mL (≈ 83.4 µM) and the MIC ([3]; strain ARC3485, OXA-82) was 16 µg/mL (≈ 41.7 µM). For the same compound, the MIC ([3]; strain ARC3486, OXA-72, OXA-66, TEM-1) was greater than 32 µg/mL, the MIC ([3]; strain ARC3487, OXA-20, OXA-58, OXA-66) was 8 µg/mL (≈ 20.9 µM) and the MIC ([3]; strain ARC3488, OXA*, OXA-68) was 4 µg/mL (≈ 10.4 µM). It also gave an MIC ([3]; strain ARC3489, OXA*, OXA-68) of 4 µg/mL (≈ 10.4 µM), an MIC ([3]; strain ARC3490, TEM-1+, PSE-2, OXA-69) of 0.5 µg/mL (≈ 1.3 µM) and an MIC ([3]; strain ARC3491 (A. baumannii/calcoaceticus complex), OXA-215) of 2 µg/mL (≈ 5.22 µM). It also gave an MIC ([3]; strain ARC3492, OXA-40, OXA-132, TEM-1) greater than 32 µg/mL, an MIC ([3]; strain ARC3493, OXA-40, OXA-66) greater than 32 µg/mL and an MIC ([3]; strain ARC3494, OXA-65) of 0.25 µg/mL (≈ 0.652 µM). It also gave an MIC ([3]; strain ARC3495, OXA-40, OXA-109) greater than 32 µg/mL, an MIC ([3]; strain ARC3513, TEM-1, OXA-23, OXA-65) of 32 µg/mL (≈ 83.4 µM) and an MIC ([3]; strain ARC3515, OXA-64, OXA-58) of 4 µg/mL (≈ 10.4 µM). It also gave an MIC ([3]; strain ARC3657, OXA-130) of 2 µg/mL (≈ 5.22 µM), an MIC ([3]; strain ARC3658, OXA-66, PER-1, TEM-1, OXA-23) of 32 µg/mL (≈ 83.4 µM) and an MIC ([3]; strain ARC3659, OXA-23, OXA*) of 8 µg/mL (≈ 20.9 µM). The MIC ([3]; strain ARC3882, OXA-23, NDM-1, OXA-10*) was greater than 32 µg/mL, the MIC ([3]; strain ARC5073, OXA-23, TEM-1, OXA-64, PER-1) was greater than 32 µg/mL and the MIC ([3]; strain ARC5074, GES*, TEM-1, OXA-51) was 8 µg/mL (≈ 20.9 µM). For the same compound, the MIC ([3]; strain ARC5075, SHV-5, OXA-113) was 32 µg/mL (≈ 83.4 µM), the MIC ([3]; strain ARC5076, TEM-1, OXA-23, OXA-66) was 32 µg/mL (≈ 83.4 µM) and the MIC ([3]; strain ARC5077, OXA*, OXA-72) was greater than 32 µg/mL. The MIC ([3]; strain ARC5079, OXA-72, OXA-65) was greater than 32 µg/mL, the MIC ([3]; strain ARC5080, OXA-71, OXA-40) was greater than 32 µg/mL and the MIC ([3]; strain ARC5081, OXA-94, OXA-23) was 16 µg/mL (≈ 41.7 µM). For the same compound, the MIC ([3]; strain ARC5082, OXA-66, OXA-23) was greater than 32 µg/mL, the MIC ([3]; strain ARC5083, OXA-66, OXA-23) was 16 µg/mL (≈ 41.7 µM) and the MIC ([3]; strain ARC5084, IMP-4(B), OXA-58, OXA-65) was greater than 32 µg/mL. For the same compound, the MIC ([3]; strain ARC5085, OXA*, TEM-1) was 8 µg/mL (≈ 20.9 µM), the MIC ([3]; strain ARC5086, OXA*, TEM-1, OXA-72, OXA-66) was greater than 32 µg/mL and the MIC ([3]; strain ARC5087, OXA-66, OXA-23) was 16 µg/mL (≈ 41.7 µM). It also gave an MIC ([3]; strain ARC5088, OXA-20, OXA-58, OXA-66) of 8 µg/mL (≈ 20.9 µM), an MIC ([3]; strain ARC5089, PER*, TEM-1, OXA-23, OXA-66) of 32 µg/mL (≈ 83.4 µM) and an MIC ([3]; strain ARC5091, OXA-82, OXA-23) of 32 µg/mL (≈ 83.4 µM). It also gave an MIC ([3]; strain ARC5092, OXA-23, OXA-64) of 16 µg/mL (≈ 41.7 µM) and an MIC90 [4] of 16 µg/mL.

In the case of `CC1(C)S[C@@H]2[C@H](NC(=O)[C@H](N)c3ccccc3)C(=O)N2[C@H]1C(=O)O` [ampicillin], the “effect of ampicillin on efficacy (MIC of Unasyn®+compound 1 versus sulbactam+compound 1)” value [5] is reported as “no effect on the efficacy”.

`C[C@H]1c2cccc(O)c2C(=O)C2=C(O)[C@]3(O)C(=O)C(C(N)=O)=C(O)[C@@H](N(C)C)[C@@H]3[C@@H](O)[C@@H]21` [doxycycline] showed a survivorship [6] of 40%.
